Measured values as given in patent US20260215432A1, “ANTIMICROBIAL CONJUGATED OLIGOELECTROLYTES AND METHODS THEREOF” (National University of Singapore, priority 2023, published 2026).

Assays:
[1] = test system: E. coli. K12 (ATCC 10798); test: MIC, broth microdilution in CA-MHB; format: cell-based; conditions: ATCC 10798, Table 7
Method: Antimicrobial activity was screened against a range of pathogens made up of clinically relevant ESKAPE pathogens by determination of the minimum inhibitory concentration (MIC) in cation-adjusted Mueller-Hinton broth (CA-MHB).
(§1) Minimum inhibitory concentrations of COEs were determined through a broth microdilution method in accordance with the Clinical and Laboratory Standards Institute (CLSI) guidelines M07-A10. A single bacterial colony was isolated from an overnight culture and grown to mid-log phase (OD600~0.8). Compounds were prepared as a stock solution in DMSO and diluted in a sterile flat-bottom 96-well plate in CA-MHB. Subsequent concentrations were prepared by two-fold dilution of the initial solution. An equivalent volume of bacteria was added to the compound to a final concentration of 5×10^5 cfu/mL. Plates were incubated at 37° C. for 16-18 hours, and read at OD600 using a microplate reader (TECAN Spark®). […] MIC values were determined for each compound in triplicate.

[2] = test system: methicillin-resistant S. aureus (USA300); test: MIC of compounds 1-5; format: cell-based; conditions: USA300, Table 7
Method: as §1, with “triplicate. For each test, Polymyxin B (Gram-negative) or vancomycin (Gram-positive) was used as a positive control.” for “triplicate.”

C(=C\c1cc(OCCC[P+](c2ccccc2)(c2ccccc2)c2ccccc2)cc(OCCC[P+](c2ccccc2)(c2ccccc2)c2ccccc2)c1)/c1ccc(/C=C/c2cc(OCCC[P+](c3ccccc3)(c3ccccc3)c3ccccc3)cc(OCCC[P+](c3ccccc3)(c3ccccc3)c3ccccc3)c2)cc1.[I-].[I-].[I-].[I-] [Compound 5]
MIC E. coli K12 [1]: 64 µg/mL
MIC MRSA [2]: 32 µg/mL

[I-].[I-].c1ccc([P+](CCCCCCCCOc2ccc(/N=N/c3ccc(OCCCCCCCC[P+](c4ccccc4)(c4ccccc4)c4ccccc4)cc3)cc2)(c2ccccc2)c2ccccc2)cc1 [Compound 3]
MIC E. coli K12 [1]: 32 µg/mL
MIC MRSA [2]: 4 µg/mL
